Results from patent publication US20190292174A1, “MICROBIOCIDAL OXADIAZOLE DERIVATIVES” (SYNGENTA PARTICIPATIONS AG, priority 2016, published 2019).

Columns and labels:
[1] = tested on: Glomerella lagenarium (Colletotrichum lagenarium); assay: Glomerella lagenarium (Colletotrichum lagenarium) liquid culture / cucumber / preventative (anthracnose); type: cell-based; settings: Colletotrichum orbiculare, liquid culture (PDB), growth inhibition measured photometrically 3-4 days after application, compared to untreated control
Description: […] fragments or conidia suspensions of a fungus prepared either freshly from liquid cultures of the fungus or from cryogenic storage, are directly mixed into nutrient broth. DMSO solutions of the test compound (max. 10 mg/ml) are diluted with 0.025% Tween20 by a factor of 50 and 10 μl of this solution is pipetted into a microtiter plate (96-well format). The nutrient broth containing the fungal spores/mycelia fragments is then added to give an end concentration of the tested compound. The test plates are incubated in the dark at 24° C., and 96% relative humidity. The inhibition of fungal growth is determined photometrically after 2 to 7 days, depending on the pathosystem, and percent antifungal activity relative to the untreated check is calculated. Conidia of the fungus from cryogenic storage are directly mixed into nutrient broth (PDB potato dextrose broth). Alter placing a (DMSO) solution of test compound into a microtiter plate (96-well format), the nutrient broth containing the fungal spores is added. The test plates are incubated at 24° C., and the inhibition of growth is measured photometrically 3-4 days after application.

[2] = tested on: Puccinia recondita f. sp. tritici; assay: Puccinia recondita f. sp. tritici / wheat / leaf disc preventative (brown rust); type: in vivo; settings: foliar, wheat leaf segments cv. Kanzler, preventative (inoculated 1 day after application), compared to untreated control
Description: Leaf disks or leaf segments of various plant species are cut from plants grown in a greenhouse. The cut leaf disks or segments are placed in multiwell plates (24-well format) onto water agar. The leaf disks are sprayed with a test solution before (preventative) or after (curative) inoculation. Compounds to be tested are prepared as DMSO solutions (max. 10 mg/ml) which are diluted to the appropriate concentration with 0.025% Tween20 just before spraying. The inoculated leaf disks or segments are incubated under defined conditions (temperature, relative humidity, light, etc.) according to the respective test system. A single evaluation of disease level is carried out 3 to 14 days after inoculation, depending on the pathosystem. Percent disease control relative to the untreated check leaf disks or segments is then calculated. Wheat leaf segments cv. Kanzler are placed on agar in multiwell plates (24-well format) and sprayed with the formulated test compound diluted in water. The leaf disks are inoculated with a spore suspension of the fungus 1 day after application. The inoculated leaf segments are incubated at 19° C. and 75% rh under a light regime of 12 h light/12 h darkness in a climate cabinet and the activity of a compound is assessed as percent disease control compared to untreated when an appropriate level of disease damage appears in untreated check leaf segments (7-9 days after application).

[3] = tested on: Puccinia recondita f. sp. tritici; assay: Puccinia recondita f. sp. tritici / wheat / leaf disc curative (brown rust); type: in vivo; settings: foliar, 24 h, wheat leaf segments cv. Kanzler, curative (applied 1 day after inoculation), compared to untreated control, read-out: control of Puccinia recondita f. sp. tritic
Description: Leaf disks or leaf segments of various plant species are cut from plants grown in a greenhouse. The cut leaf disks or segments are placed in multiwell plates (24-well format) onto water agar. The leaf disks are sprayed with a test solution before (preventative) or after (curative) inoculation. Compounds to be tested are prepared as DMSO solutions (max. 10 mg/ml) which are diluted to the appropriate concentration with 0.025% Tween20 just before spraying. The inoculated leaf disks or segments are incubated under defined conditions (temperature, relative humidity, light, etc.) according to the respective test system. A single evaluation of disease level is carried out 3 to 14 days after inoculation, depending on the pathosystem. Percent disease control relative to the untreated check leaf disks or segments is then calculated. Wheat leaf segments cv. Kanzler are placed on agar in multiwell plates (24-well format). The leaf segments are inoculated with a spore suspension of the fungus. Plates are stored in darkness at 19° C., and 75% rh. The formulated test compound diluted in water is applied 1 day after inoculation. The leaf segments are incubated at 19° C., and 75% rh under a light regime of 12 h light/12 h darkness in a climate cabinet and the activity of a compound is assessed as percent disease control compared to untreated when an appropriate level of disease damage appears in untreated check leaf segments (6-8 days after application).

Question: For `O=C(NN1CCCCC1=O)c1c(F)cc(-c2noc(C(F)(F)F)n2)cc1F` [Compound 1.12, 2,6-difluoro-N-(2-oxo-1-piperidyl)-4-[5-(trifluoromethyl)-1,2,4-oxadiazol-3-yl]benzamide], which inhibition of growth at 20 ppm [1] is on record?
Answer: Its inhibition of growth at 20 ppm is no less than 80%.

Question: What about the melting point of the same molecule?
Answer: The melting point was 205 to 209 °C.

Question: For `Cc1cc(-c2noc(C(F)(F)F)n2)cnc1C(=O)NN1CCCCC1=O` [Compound 1.13, 3-methyl-N-(2-oxo-1-piperidyl)-5-[5-(trifluoromethyl)-1,2,4-oxadiazol-3-yl]pyridine-2-carboxamide], which melting point is on record?
Answer: Its melting point is 159 to 162 °C.

Question: Which pest or weed control at 200 ppm [2] does the source give for `O=C(Nn1ccc2ccccc21)c1ccc(-c2noc(C(F)(F)F)n2)cc1` [Compound 1.11, N-indol-1-yl-4-[5-(trifluoromethyl)-1,2,4-oxadiazol-3-yl]benzamide] here?
Answer: Its pest or weed control at 200 ppm is no less than 80%.

Question: And the inhibition of growth at 20 ppm [1]?
Answer: Its inhibition of growth at 20 ppm is no less than 80%.

Question: What about the melting point of the same molecule?
Answer: Its melting point is 188 to 190 °C.

Question: With `O=C(NNCCO)c1ccc(-c2noc(C(F)(F)F)n2)cc1` [Compound 1.18, N′-(2-hydroxyethyl)-4-[5-(trifluoromethyl)-1,2,4-oxadiazol-3-yl]benzohydrazide] as the molecule, how does the pest or weed control at 200 ppm [2] read?
Answer: The pest or weed control at 200 ppm was no less than 80%.

Question: And the pest or weed control at 200 ppm [3]?
Answer: The pest or weed control at 200 ppm was no less than 80%.

Question: And the inhibition of growth at 20 ppm [1]?
Answer: Its inhibition of growth at 20 ppm is no less than 80%.

Question: What about the melting point of the same molecule?
Answer: Its melting point is 140 to 149 °C.

Question: Which results are given for `O=C(NN1CCOC1=O)c1ccc(-c2noc(C(F)(F)F)n2)c(F)c1` [Compound 1.25, 3-fluoro-N-(2-oxooxazolidin-3-yl)-4-[5-(trifluorormethyl)-1,2,4-oxadiazol-3-yl]benzamide]?
Answer: pest or weed control at 200 ppm [2]: ≥ 80%; pest or weed control at 200 ppm [3]: ≥ 80%; inhibition of growth at 20 ppm [1]: ≥ 80%; melting point: 146 to 166 °C

Question: Which results are given for `CN(C)NC(=O)Cc1ccc(-c2noc(C(F)(F)F)n2)c(F)c1` [Compound 1.30, 2-[3-fluoro-4-[5-(trifluoromethyl)-1,2,4-oxadiazol-3-yl]phenyl]-N′,N′-dimethyl-acetohydrazide]?
Answer: pest or weed control at 200 ppm [2]: ≥ 80%; pest or weed control at 200 ppm [3]: ≥ 80%; inhibition of growth at 20 ppm [1]: ≥ 80%; melting point: 163 to 165 °C

Question: With `O=C(Cc1ccc(-c2noc(C(F)(F)F)n2)c(F)c1)NN1CCCCC1=O` [Compound 1.32, 2-[3-flouro-4-[5-(trifluoromethyl)-1,2,4-oxadiazol-3-yl]phenyl]-N-(2-oxo-1-piperidyl)acetamide] as the molecule, how does the pest or weed control at 200 ppm [2] read?
Answer: Its pest or weed control at 200 ppm is no less than 80%.

Question: What about the pest or weed control at 200 ppm [3] of the same molecule?
Answer: Its pest or weed control at 200 ppm is no less than 80%.

Question: What about the inhibition of growth at 20 ppm [1] of the same molecule?
Answer: The inhibition of growth at 20 ppm was no less than 80%.

Question: What about the melting point of the same molecule?
Answer: Its melting point is 161 to 163 °C.

Question: For `NN(C(=O)c1ccccc1)C(=O)c1ccc(-c2noc(C(F)(F)F)n2)cc1` [Compound 1.5, N-benzoyl-4-[5-(trifluoromethyl)-1,2,4-oxadiazol-3-yl]benzohydrazide], which pest or weed control at 200 ppm [2] is on record?
Answer: Its pest or weed control at 200 ppm is no less than 80%.

Question: And the inhibition of growth at 20 ppm [1]?
Answer: The inhibition of growth at 20 ppm was no less than 80%.

Question: What about the melting point of the same molecule?
Answer: Its melting point is 115.3 to 118.6 °C.

Question: Which pest or weed control at 200 ppm [3] does the source give for `O=C(Cc1ccc(-c2noc(C(F)(F)F)n2)cc1F)NN1CCOCC1` [Compound 1.28, 2-[2-fluoro-4-[5-(trifluoromethyl)-1,2,4-oxadiazoi-3-yl]phenyl]-N-morpholino-acetamide] here?
Answer: The pest or weed control at 200 ppm was no less than 80%.

Question: And the inhibition of growth at 20 ppm [1]?
Answer: The inhibition of growth at 20 ppm was no less than 80%.

Question: And the melting point?
Answer: The melting point was 201 to 203 °C.

Question: For `O=C(Cc1ccc(-c2noc(C(F)(F)F)n2)c(F)c1)NN1CCOCC1` [Compound 1.31, 2-[3-fluoro-4-[5-(trifluoromethyl)-1,2,4-oxadiazol-3-yl]phenyl]-N-morpholino-acetamide], which pest or weed control at 200 ppm [3] is on record?
Answer: Its pest or weed control at 200 ppm is no less than 80%.

Question: And the melting point?
Answer: The melting point was 207 to 209 °C.

Question: Which pest or weed control at 200 ppm [2] does the source give for `O=C(NN1CCc2ccccc21)c1ccc(-c2noc(C(F)(F)F)n2)cc1` [Compound 1.10, N-indolin-1-yl-4-[5-(trifluoromethyl)-1,2,4-oxadiazol-3-yl]benzamide] here?
Answer: Its pest or weed control at 200 ppm is no less than 80%.

Question: What about the inhibition of growth at 20 ppm [1] of the same molecule?
Answer: Its inhibition of growth at 20 ppm is no less than 80%.

Question: And the melting point?
Answer: Its melting point is 167 to 170 °C.

Question: For `O=C(Cc1ccc(-c2noc(C(F)(F)F)n2)cc1F)NN1CCCCC1=O` [Compound 1.29, 2-[2-fluoro-4-[5-(trifluoromethyl)-1,2,4-oxadiazol-3-yl]phenyl]-N-(2-oxo-1-piperidyl)acetamide], which pest or weed control at 200 ppm [2] is on record?
Answer: Its pest or weed control at 200 ppm is no less than 80%.

Question: What about the pest or weed control at 200 ppm [3] of the same molecule?
Answer: The pest or weed control at 200 ppm was no less than 80%.

Question: And the inhibition of growth at 20 ppm [1]?
Answer: The inhibition of growth at 20 ppm was no less than 80%.

Question: What about the melting point of the same molecule?
Answer: Its melting point is 154 to 156 °C.
